Test results taken from patent US6919378B2, “Pharmaceutical solutions of modafinil compounds” (Cephalon, Inc., priority 2000, dated 2005).
≈ marks a conversion by molar mass, not a printed value.

Legend:
[1] = Solubility of modafinil in solvent composition, measured by HPLC; assay type: physicochemical; conditions: PEG-400:benzyl alcohol 95:5 (v/v) solvent mixture, organic solvent or mixture, thermodynamic from solid, in 95:5 (v/v) PEG-400:benzyl alcohol, cooled to room temperature, filtered
Description: The following HPLC method may be used to measure the modafinil compound content in the compositions. Filter a solution saturated with a modafinil compound through a 1.2 μm syringe filter. Dilute 10 μL of the clear solution to 1 mL with 990 μL of dimethylsulfoxide (Fischer Certified ACS grade). Take 10 μL of the diluted solution for the HPLC analysis, with the following representative column conditions: • Flow rate: 1.2 mL/min. • Column: ODS, 4.6×20 mm, Column Temp: 30° C. • Mobil phase: 80% (65% Acetonitrile/35% 1M phosphate buffer) • 20% water • Analysis time: 5 minutes • Wavelength: 222 nanometers
Concentration can be calculated by comparison to area from a modafinil compound standard used at 0.4 mg/mL with appropriate dilution.
A mixture of 95 mL of PEG-400 and 5 ml of benzyl alcohol was stirred at room temperature until homogeneous. To a separate container, 0.1 gram of modafinil was weighed and 1 mL of the mixed solvent was added with stirring and heating to 55-60° C. The solution was allowed to cool to room temperature and any undissolved solid was removed by filtering the solution. In the case of a viscous solution or a solution that solidifies at room temperature, warming until a freely flowing solution was obtained and then filtration gave a solution free of particulate matter.

[2] = system: monkeys; conditions: single administration; cited from earlier work
[3] = system: mice; conditions: single administration; cited from earlier work
[4] = Water and lipid solubility (observation)

NC(=O)C[S+]([O-])C(c1ccccc1)c1ccccc1 (centres unmarked) [modafinil, 2-(benzhydryl-sulfinyl)acetamide]
solubility [1]: 61 mg/mL (≈ 223 mM)
nocturnal activity [2]: increased nocturnal activity
locomotor activity [3]: increased locomotor activity
lipid solubility [4]: very poor
water solubility [4]: very poor
